Values quoted from earlier work in patent US20160000504A1, “METHOD FOR TRAINING IMMUNE CELLS USING MILLIMETER WAVE THERAPY” (Electrohealing Holdings, Inc., priority 2014, published 2016).
Structures can show the parent of a compound that is named as a salt.

Test system: B16 melanoma cells
Conditions: 1 mg per kg thirty minutes prior to each treatment; MMWT 61.22 GHz, 5 day delay before first irradiation; groups seven and eight vs three and four (FIG. 2A vs FIG. 2B)

SMILES: C=CCN1CC[C@]23c4c5ccc(O)c4O[C@H]2C(=O)CC[C@@]3(O)[C@H]1C5 [naloxone hydrochloride]
- change in tumor size: effect of opioid antagonist on MMWT inhibition of tumor growth: blocks the beneficial effects of MMWT
